Assay results published in patent US8158799B2, “Hydroxyquinoline derivatives” (Merck Patent Gesellschaft MIT Meschraenkter Haftung, priority 2005, dated 2012).

Test system: colon carcinoma cell lines
Experiment: Inhibition of the proliferation of tumour cells in vitro (propidium iodide uptake)
Type: cell-based
Conditions: 72 h, 10,000 cells per well, 3 days incubation at 37° C., propidium iodide/NP40 fluorescence, % of control
Excerpt: The antiproliferative action can be tested in an HCT116 proliferation assay.
The present experimental description describes the inhibition of tumour cell proliferation by active ingredients.
The cell proliferation is estimated by measurement of the uptake of propidium iodide. […] It is prevented from entering healthy cells. However, if cells have been killed by addition of the detergent NP40, cell membrane and nuclear membrane become permeable. PI attaches itself to the DNA of the cell nuclei and fluoresces in this complex. This fluorescence is measured in the fluorimeter.
commercially available colon carcinoma cell lines
10,000 cells are plated out per well, in a volume of 180 μl, in a 96-hole plate. The outer rows A1-12, 1A-H, 12A-H and H1-12 are only filled with 200 μl of medium or buffer.
The cells are incubated for 24 hours, at 37° C. and 10% CO2 gassing.
In order to test active substances, the corresponding dilutions must first be produced and assigned to the wells. The scheme of a 1:3 dilution indicated here as an example can be varied correspondingly as desired. The scheme described is designed for 4 test substances.
20 μl of medium, solvent dilution or the corresponding dilution of the positive control (IC50) are pipetted into these holes.
Substance groups (column B-G, wells 2-9): 20 μl of substance dilution are pipetted into these holes.
147 μl of medium is introduced into each of the wells of row B of the extra plate in columns 1, 2, 3, 4, and 3 μl of the test substance are added (=300 μM). 100 μl of medium are introduced into rows C-G, columns 1-4. 50 μl are then transferred into row C using a multichannel pipette, mixed 8×, and 50 μl are then transferred from this row into row D. This is continued correspondingly until row G has been reached, in which, after mixing, 50 μl of the dilution are removed and discarded. 100 μl of each desired dilution are now located in the extra plate, and it is now only necessary to transfer 20 μl directly into the test plate.
The plate is incubated at 37° C. and 10% CO2 gassing for 3 days.
The cells multiplying in this time are determined by means of propidium iodide.
20 μl of PI stock solution and 10 μl of NP40 stock solution are required per well. Since each plate has 72 wells charged with PI and with NP40, 1440 μl of the PI stock solution and 720 μl of the NP40 stock solution are required per plate. Taking into account pipetting losses, 1.8 ml of PI stock solution are thus taken and mixed with 0.9 ml of the NP40 stock solution immediately before pipetting in. 30 μl of the PI/NP40 mixture are now pipetted into each of the wells of the plate, each of which contain 200 μl of medium. The plate is subsequently placed in the incubator for 2 hours.
The plate(s) is measured in a fluorescence photometer at a wavelength Ex. 520 nm and Em of 620 nm. The background (=medium+PI) is subtracted from all values, which are subsequently averaged (double values) and expressed or calculated in % of control.
An IC50 (half-maximum action) can now be calculated using a statistics program such as, for example, RS1.
Prepare the desired stock solution at […] in DMSO. Adjust to ten times the concentration to be tested in the cell culture (see above) by dilution in culture medium.

Row | IC50 [nM] | Compound
1 | 210 | CCOc1ccccc1NC(=O)Nc1ccc2cccnc2c1O [Compound A20, 1-(2-Ethoxyphenyl)-3-(8-hydroxyquinolin-7-yl)-urea]
2 | 2100 | O=C(Nc1cc(Cl)c2cccnc2c1O)C(c1ccccc1)c1ccccc1 [Compound A2, N-(5-chloro-8-hydroxyquinolin-7-yl)-2,2-diphenylacetamide]
3 | 90 | O=C(Nc1cc(Cl)c2cccnc2c1O)NC(c1ccccc1)c1ccccn1 (stereo not drawn) [Compound A14, 1-(5-chloro-8-hydroxyquinolin-7-yl)-3-(phenylpyridin-2-ylmethyl)urea]
4 | 90 | O=C(CC(c1ccccc1)c1ccccc1)Nc1cc(Cl)c2cccnc2c1O [Compound A1, N-(5-chloro-8-hydroxyquinolin-7-yl)-3,3-diphenylpropionamide]
5 | 1500 | O=C(Nc1ccc(C(F)(F)F)cc1)Nc1ccc2cccnc2c1O [Compound A19, 1-(8-Hydroxyquinolin-7-yl)-3-(4-trifluoromethylphenyl)urea]
6 | 1100 | O=C(Nc1cc(Cl)c2cccnc2c1O)C(Cc1ccccn1)c1ccccc1 (stereo not drawn) [Compound A3, N-(5-chloro-8-hydroxyquinolin-7-yl)-2-phenyl-3-pyridin-2-ylpropionamide]
